Measurements taken from patent US4314061A, “Certain 3,6-bis-(heteroaminoalkoxy) acridines” (priority 1980, dated 1982).

Legend:
[1] = tested on: natural killer lymphocytes (NK cells); experiment: Stimulation of NK-cell activity in normal mice
[2] = tested on: Columbia SK virus; experiment: Protection of mice against lethal Columbia SK virus infection by oral pre-treatment; format: in vivo, random-bred Swiss male mice; conditions: 400 mg/kg oral
Protocol: At 24, 48, 72 and 96 hours after drug treatment, separate groups of mice were injected SC with an LD95 dose of the interferon sensitive virus, Columbia SK. […] Typically, protection from lethal infection with Columbia SK virus is associated with induction of interferon.

[3] = tested on: normal mouse bone marrow; experiment: Effect on normal mouse bone marrow; format: in vivo, C57 BL6 male mice; conditions: 24 hours after treatment; test compound oral, Cytoxan intraperitoneal
Protocol: The effect of drugs on normal mouse bone marrow is evaluated by determining total cell counts of femurs and by the ability of surviving cells to form colonies in semi-solid medium. The test compound is administered orally and the reference drug Cytoxan is administered intraperitoneally to C57 BL6 male mice. One femur from each of three mice per dose level is assayed 24 hours after treatment. Counts of nucleated cells are performed on pooled marrow suspensions and the clonogenic assay is performed by plating 50,000 cells in one ml. of culture medium in each of four culture dishes. The medium to support bone marrow progenitor cell growth is McCoy's medium supplemented with 0.9% methocel, 1.8% human serum albumin, 10% bovine fetal serum and 10% "conditioned" L-cell medium. Cultures are incubated at 37° C. in a humidified atmosphere and colonies are counted at seven days.

[4] = tested on: Lewis lung carcinoma; experiment: Surgical-adjuvant antitumor activity against Lewis lung carcinoma implanted subcutaneously in footpads; format: in vivo, BDF1 mice; conditions: for Average % of tumor weight inhibition / Average tumor weight: Day +11; for No. Survivors/No. Treated: at +90 days; for % Increased life-span: + significant (≥25%)
Protocol: BDF1 mice were inoculated subcutaneously in the right hind footpad with 5×10^5 viable Lewis Lung carcinoma cells, on day zero. […] A control group of mice received a saline placebo instead of drug, and another group of tumor bearing mice received the positive control drug cyclophosphamide, at 100 mg/kg, administered by intraperitoneal injection. On the 11th day after tumor implantation, the mice were anesthesized with Nembutal, and the tumor bearing feet surgically amputated above the ankle joint. The surgical incision was swabbed with alcohol and sealed with stainless steel wound clips. The tumor bearing feet were individually weighed and the average weight of a normal foot (determined by weighing amputated feet from non-tumor bearing mice of the same age, sex and body weight) was subtracted to obtain the weight of tumor tissue in the amputated foot. Mice were then observed for deaths until the 90th day after tumor implantation. […]
^1 BDF1 male mice inoculated subcutaneously in footpad with 5
× 10^5 Lewis lung tumor cells on day zero;
(§1) 3,6bis(2-diethylaminoethoxy)acridine trihydrochloride administered orally
(§2) and Cyclophosphamide intraperitoneally, on days 1, 7, and 13 following
(§3) ^2 Average tumor weight determined after surgical amputation of tumor
bearing foot on day 11 following tumor implantation.

[5] = tested on: B16 melanoma; experiment: Surgical-adjuvant antitumor activity against B16 melanoma implanted subcutaneously in footpads; format: in vivo, BDF1 mice; conditions: for Average % of tumor weight inhibition / Average tumor weight: Day +21; for No. Survivors/No. Treated: at +90 days
Protocol: BDF1 mice were inoculated subcutaneously in the right hind footpad with 5×10^5 viable B16 melanoma cells, on day zero. The drug was prepared in normal saline and administered by the oral route once daily, on days 1, 7, and 13 following tumor implantation, at doses range from 50 mg/kg to 400 mg/kg. A control group of mice received a saline placebo instead of drug, and another group of tumor bearing mice received the positive control drug cyclophosphamide, at 100 mg/kg, by intraperitoneal injection. On the 21st day after tumor implantation, the mice were anesthesized with Nembutal, and the tumor bearing feet were surgically amputated above the ankle joint. The surgical incision was swabbed with alcohol and sealed with stainless steel wound clips. The tumor bearing feet were individually weighed and the average weight of a normal foot (determined by weighing amputated feet from non-tumor bearing mice of the same sex, age, and body weight) was subtracted to obtain the weight of tumor tissue in the amputated feet. Mice were then observed for deaths until the 90th day after tumor implantation. […]
^1 BDF1 male mice inocluated with 5 × 10^5 B16 melanom
cells subcutaneously in footpad on day zero;
as §1, §2, §3
bearing foot on day 21 following tumor implantation.

[6] = 200 mg/kg oral, * significant (≥58%)
[7] = 300 mg/kg oral, * significant (≥58%)
[8] = 400 mg/kg oral, * significant (≥58%)

## CCN(CC)CCOc1ccc2cc3ccc(OCCN(CC)CC)cc3nc2c1.Cl.Cl.Cl
[1]; Test 1 (CD1 mice), 75 mg/kg oral, ** p <.01
  % Cytotoxicity: 29.5%
[1]; Test 1 (CD1 mice), 150 mg/kg oral, ** p <.01
  % Cytotoxicity: 37.7%
[1]; Test 1 (CD1 mice), 300 mg/kg oral, * p <.05
  % Cytotoxicity: 25.8%
[1]; Test 2 (BDF1 hybrids), 75 mg/kg oral, ** p <.01
  % Cytotoxicity: 44.4%
[1]; Test 2 (BDF1 hybrids), 150 mg/kg oral, ** p <.01
  % Cytotoxicity: 40.9%
[1]; Test 2 (BDF1 hybrids), 300 mg/kg oral, * p <.05
  % Cytotoxicity: 38.2%
[1]; mouse, in vivo
  Stimulation of NK cell activity, in words: active in this test
[2]; -24 hr relative to virus challenge, * p <.01
  Survivors/Total (14 Days): 19/20
[2]; -48 hr relative to virus challenge, * p <.01
  Survivors/Total (14 Days): 10/20
[2]; -72 hr relative to virus challenge
  Survivors/Total (14 Days): 1/20
[2]; -96 hr relative to virus challenge
  Survivors/Total (14 Days): 1/20
[3]
  Effect on total nucleated cell count of femur marrow, in words: minimal effects on the total nucleated cell count
[4]; 50 mg/kg oral
  Median survival time: > 90.0 days
  Average % of tumor weight inhibition: 38%
  Average tumor weight: 236 mg
  No. Survivors/No. Treated: 8/12
  % Increased life-span: > 200%
[4]; 100 mg/kg oral
  Median survival time: > 90.0 days
  Average % of tumor weight inhibition: 46%
  Average tumor weight: 203 mg
  % Increased life-span: > 200%
[4]; 100 mg/kg oral, ** p < .05
  No. Survivors/No. Treated: 9/12
[4]; 200 mg/kg oral
  Median survival time: > 90.0 days
  Average tumor weight: 38 mg
  % Increased life-span: > 200%
[4]; [6]
  Average % of tumor weight inhibition: 90%
[4]; 200 mg/kg oral, ** p < .05
  No. Survivors/No. Treated: 12/12
[4]; 300 mg/kg oral
  Median survival time: > 90.0 days
  Average tumor weight: 56 mg
  % Increased life-span: > 200%
[4]; [7]
  Average % of tumor weight inhibition: 85%
[4]; 300 mg/kg oral, ** p < .05
  No. Survivors/No. Treated: 10/12
[4]; 400 mg/kg oral
  Median survival time: > 90.0 days
  Average tumor weight: 17 mg
  % Increased life-span: > 200%
[4]; [8]
  Average % of tumor weight inhibition: 96%
[4]; 400 mg/kg oral, ** p < .05
  No. Survivors/No. Treated: 10/12
[5]; 50 mg/kg oral
  % Increased life-span: 2%
  Median survival time: 54.0 days
  Average % of tumor weight inhibition: 33%
  Average tumor weight: 403 mg
  No. Survivors/No. Treated: 0/12
[5]; 100 mg/kg oral
  % Increased life-span: 21%
  Median survival time: 64.0 days
  Average tumor weight: 225 mg
  No. Survivors/No. Treated: 2/12
[5]; 100 mg/kg oral, * significant (≥58%)
  Average % of tumor weight inhibition: 63%
[5]; 200 mg/kg oral
  Median survival time: > 90.0 days
  Average tumor weight: 122 mg
[5]; [6]
  Average % of tumor weight inhibition: 80%
[5]; 200 mg/kg oral, ** significant
  No. Survivors/No. Treated: 7/12
[5]; 200 mg/kg oral, + significant (≥25%)
  % Increased life-span: > 70%
[5]; 300 mg/kg oral
  Median survival time: > 90.0 days
  Average tumor weight: 63 mg
[5]; [7]
  Average % of tumor weight inhibition: 90%
[5]; 300 mg/kg oral, ** significant
  No. Survivors/No. Treated: 8/12
[5]; 300 mg/kg oral, + significant (≥25%)
  % Increased life-span: > 70%
[5]; 400 mg/kg oral
  Median survival time: 69.0 days
  Average tumor weight: 51 mg
[5]; [8]
  Average % of tumor weight inhibition: 92%
[5]; 400 mg/kg oral, ** significant
  No. Survivors/No. Treated: 5/12
[5]; 400 mg/kg oral, + significant (≥25%)
  % Increased life-span: 30%
